One experiment deals with NIH3T3. Briefly: In vitro cytotoxicity was evaluated in mouse embryo BALB/c 3T3 cells. It counts as functional. Particulars: read-out: LC50 (the source's name).
For a further experiment, the system named is L1210. Kind of experiment: Compound was evaluated against L1210 leukemia in mice expressed as increase of life span; Compound was active. It counts as functional, Mus musculus.

Each structure is given as a SMILES string. Some results are limits rather than exact numbers.

Usually ILS stands for how much longer treated animals lived than controls. Read a low ILS as little gain in survival. For the compound `CN1C(SCCS(=O)(=O)O)CCOP1(=O)N(CCCl)CCCl` (stereo not drawn), the CC50 in the experiment on NIH3T3 worked out at 3.6 µM. For the same compound, the ILS in the experiment on L1210 was greater than 29%.
As for `O=P1(N(CCCl)CCCl)NCCCO1` (stereo not drawn) [CYCLOPHOSPHAMIDE ANHYDROUS], in the experiment on NIH3T3, the CC50 turned out to be 37.6 µM.

Source of the values: ChEMBL document CHEMBL1130863, “N3-methyl-mafosfamide as a chemically stable, alternative prodrug of mafosfamide” (1998).
